Assay results reported in publication PMC8147216, “Genotoxicity Evaluation of Propyl-Propane-Thiosulfinate (PTS) from Allium genus Essential Oils by a Combination of Micronucleus and Comet Assays in Rats” (Foods, 2021).
Several values for one entry are separate records, joined by “and”; a condition that tells them apart may be missing. Equal entries are not always repeated. Where two headings read alike, the source gives them in different places.

Experiments:
[1] = tested on: rats; assay: Observation of clinical signs after treatment; format: in vivo, Wistar rats; details: all levels of doses of PTS (5.5, 17.4, 55.0 mg/kg b.w.), oral gavage
Text: After treatment, each rat was observed twice daily for clinical signs such as changes in the eye, fur, or skin, changes in gait and posture, and secretions.

[2] = tested on: liver, stomach and blood cells; assay: In vivo enzyme-modified comet assay (Endo III, FPG); set-up: species or system Wistar rats; details: any tissue assayed (liver, stomach, blood); 5.5, 17.4, 55.0 mg/kg
Protocol: (§1) After acclimation time, 28 male and 28 female rats were randomly divided into control or treatment groups: the negative control (C−) (five male and five female rats), the solvent control (C sol) (five male and five female rats) treated with water with 0.3% Tween 80, and the positive control (C+) (three male and three female rats) treated with 200 mg/kg b.w. of ethylmethanesulfonate (EMS). The three PTS-treated groups (five male and five female rats per group) were exposed to 55.0, 17.4, and 5.5 mg of PTS/kg b.w. The number of animals was selected according to OECD 474 [27] and OECD 489 [28], which state five animals per sex and per group, and which also allow the use of at least three animals of both sexes treated with a positive control.
(§2) Doses were dissolved in water with Tween 80 (final concentration 0.3%) in a final volume of 1.5 mL. Tween 80 was previously used in genotoxicity in vivo studies by Mellado-Garcia et al. with the aim of better conveying alliaceous compounds with an oily nature. […]
(§3) At least 150 randomly selected nuclei per rat were analyzed with the image-analysis-software Comet Assay IV (Perceptive Instruments, UK). The %DNA in the tail, automatically acquired by the software, were used to define each of the comets analyzed. […] The medians of the scored comets were taken to describe each animal, and the means of each group of doses and controls are represented in Figure 2.

[3] = tested on: bone marrow erythrocytes; assay: In vivo micronucleus (MN) assay in bone marrow (OECD 474); set-up: species or system Wistar rats
Protocol: as §1
Doses were dissolved in water with Tween 80 (final concentration 0.3%) in a final volume of 1.5 mL. Tween 80 was previously used in genotoxicity in vivo studies by Mellado-Garcia et al. with the aim of better conveying alliaceous compounds with an oily nature. All groups were dosed at 0, 24, and 45 h via gavage using a stomach tube (Vygon, Ecouen, France) and were sacrificed 3 h after the final dose administration for the combined comet assay and MN endpoints. The time points of PTS administrations, as well as the timing of sacrifice, were selected following the criteria of OECD guideline 489 and Bowen et al..
(§4) Samples of the liver and stomach were extracted, and a small part of each tissue was immediately handled, as described in Section 2.6, for the standard and enzyme-modified comet assay. Moreover, blood samples were extracted and preserved in Vacutainer® sodium Heparin Tubes (Becton, Dickinson, Rutherford, NJ, USA). Furthermore, samples from the bone marrow of both femurs of each animal were gathered for the MN assay and were rapidly used to prepare smears (Figure 1). For the histopathologic study, sections of the liver and stomach were excised, rinsed with cold saline solution, and preserved in 10% buffered formalin for light microscopy, according to Llana-Ruiz-Cabello et al..
The MN test was performed according to the OECD guideline 474 [27] and Diez-Quijada et al.. The bone marrow of the femurs of the rats were mixed with a drop of fetal bovine serum. Therefore, slides were immersed in methanol, dried, and stained with Giemsa (Figure 1).
The polychromatic erythrocytes (PCE) among total erythrocytes (polychromatic and normochromic erythrocytes (NCE)) ratio and PCE for every NCE ratio were calculated by counting 500 erythrocytes per rat. The number of micronuclei found in immature erythrocytes was calculated by counting a total of 5000 […] per rat, and it was expressed as %MN.

[4] = tested on: liver, stomach and blood cells; assay: In vivo standard comet assay (OECD 489); set-up: species or system Wistar rats; details: any doses assayed, either sex
Protocol: as §1, §2, §3

[5] = tested on: L5178YTk+/− cells; set-up: method as in PMID 27939830; details: 0.9–15.65 µM, 24 and 48 h of treatment; cited from earlier work
[6] = tested on: Caco-2 cells; set-up: method as in PMID 27939830; details: 24–48 h; cited from earlier work
[7] = tested on: rats; assay: Acute toxicity study to establish the maximum tolerated dose; format: in vivo
Protocol: The selection of PTS doses was calculated while taking into account a preceding acute toxicity study carried out by our research group, in which rats (8–10 weeks old) were administrated decreasing doses of PTS to establish the maximum tolerated dose (MTD). […] At that dose, no remarkable injury was detected in the treated rats, and no evidence of study-limiting toxicity was observed. Then, considering the ICH S2 Guidelines and the OECD protocols 474 [27] and 489 [28], the limit dose or MTD of 55.0 mg/kg b.w. was chosen as the highest dose, and two additional properly spaced dose levels (divided by √10) were also calculated. Consequently, the doses were set at 55.0, 17.4, or 5.5 mg of PTS/kg b.w.

[8] = tested on: male and female rats; assay: Combined in vivo MN-comet assay (overall genotoxicity); details: male and female rats orally exposed, 55.0, 17.4 or 5.5 mg PTS/kg b.w.
Protocol: After acclimation time, 28 male and 28 female rats were randomly divided into control or treatment groups: the negative control (C−) (five male and five female rats), the solvent control (C sol) (five male and five female rats) treated with water with 0.3% Tween 80, and the positive control (C+) (three male and three female rats) treated with 200 mg/kg b.w. of ethylmethanesulfonate (EMS). The three PTS-treated groups (five male and five female rats per group) were exposed to 55.0, 17.4, and 5.5 mg of PTS/kg b.w. The number of animals was selected according to OECD 474 [27] and OECD 489 [28], which state five animals per sex and per group, and which also allow the use of at least three animals of both sexes treated with a positive control. Doses were dissolved in water with Tween 80 (final concentration 0.3%) in a final volume of 1.5 mL. Tween 80 was previously used in genotoxicity in vivo studies by Mellado-Garcia et al. with the aim of better conveying alliaceous compounds with an oily nature. All groups were dosed at 0, 24, and 45 h via gavage using a stomach tube (Vygon, Ecouen, France) and were sacrificed 3 h after the final dose administration for the combined comet assay and MN endpoints. The time points of PTS administrations, as well as the timing of sacrifice, were selected following the criteria of OECD guideline 489 and Bowen et al..

[9] = set-up: method as in PMID 27939830; details: 8.75–280 µM, presence or absence of S9; cited from earlier work
[10] = tested on: Caco-2 cells; set-up: method as in PMID 27939830; details: 24 and 48 h, highest concentration assayed; cited from earlier work
[11] = tested on: L5178YTk+/− cells; set-up: method as in PMID 27939830; details: cited from earlier work
[12] = tested on: liver and stomach; assay: Histopathological analysis of liver and stomach; format: in vivo, rats
Text: as §4
Liver and stomach samples were processed and observed under the microscope according to Diez-Quijada et al.. A semiquantitative evaluation of the severity of lesions was scored as follows: 0, no significant lesions (0%); 1, minimal (<10%); 2, mild (11–25%); 3, moderate (26–50%); 4, severe (51–75%); and 5: very severe (>75%). Samples were individually examined by two unbiased and experienced observers, a veterinary pathologist, and an investigator (V.M-H. and R.M.).

[13] = tested on: male and female rats; set-up: method as in PMID 27085469; details: cited from earlier work
[14] = set-up: method as in PMID 26607106; details: four in vitro genotoxicity assays; cited from earlier work
[15] = tested on: liver and stomach; set-up: method as in PMID 27085469; details: in vivo genotoxicity study; except glycogen accumulation in liver and slight degeneration in stomach at 55.0 mg/kg; cited from earlier work
[16] = females, 5.5 mg/kg, gavage at 0, 24, 45 h, mean ± SD
[17] = females, 17.4 mg/kg, gavage at 0, 24, 45 h, mean ± SD
[18] = females, 55.0 mg/kg, gavage at 0, 24, 45 h, mean ± SD
[19] = males, 5.5 mg/kg, gavage at 0, 24, 45 h, mean ± SD
[20] = males, 17.4 mg/kg, gavage at 0, 24, 45 h, mean ± SD
[21] = males, 55.0 mg/kg, gavage at 0, 24, 45 h, mean ± SD
[22] = female, Wistar, rat, in vivo, 200 mg/kg, 48 h
[23] = male, Wistar, rat, in vivo, 200 mg/kg, 48 h

CCCS[S+]([O-])CCC (stereo not drawn) [PTS, Propyl-propanethiosulfinate]
clinical signs [1]: No clinical signs were observed | frequency of Endo III or FPG-sensitive sites [2]: no remarkable changes | % of MN in immature erythrocytes vs controls ([3]; any groups (5.5, 17.4, 55 mg/kg) of either sex): not significantly changed | %MN [3, 16]: 0.86 ± 0.09% | PCE/NCE [3, 16]: 1.03 ± 0.43 | PCE/Total [3, 16]: 0.49 ± 0.10 | %MN [3, 17]: 0.74 ± 0.06% | PCE/NCE [3, 17]: 0.68 ± 0.36 | PCE/Total [3, 17]: 0.38 ± 0.13 | %MN [3, 18]: 1.03 ± 0.21% | PCE/NCE [3, 18]: 0.54 ± 0.28 | PCE/Total [3, 18]: 0.33 ± 0.11 | %MN [3, 19]: 0.46 ± 0.21% | PCE/NCE [3, 19]: 1.31 ± 0.30 | PCE/Total [3, 19]: 0.56 ± 0.05 | %MN [3, 20]: 0.72 ± 0.30% | PCE/NCE [3, 20]: 1.14 ± 0.34 | PCE/Total [3, 20]: 0.52 ± 0.08 | %MN [3, 21]: 0.46 ± 0.15% | PCE/NCE [3, 21]: 0.89 ± 0.21 | PCE/Total [3, 21]: 0.46 ± 0.06 | DNA strand breaks (%DNA in tail), standard comet assay [4]: No observed DNA stand breaks | mutagenicity in MLA assay [5]: not mutagenic | DNA damage after incubation with enzymes (Endo III or FPG) [6]: no increase in DNA damage | mortality ([7]; initial dose 175.0 mg of PTS/kg b.w.): death of one of the three animals | maximum tolerated dose (MTD) ([7]; rat, in vivo): 55.0 mg of PTS/kg | in vivo genotoxicity [8]: not genotoxic | mutagenicity in the Ames test [9]: not mutagenic | concentration with positive results in standard comet assay [10]: 280 µM and 280.0 µM | concentration with positive results in MN test in vitro ([11]; metabolites (+S9)): ≥ 20 µM | concentration with positive results in MN test in vitro ([11]; without S9, highest concentration assayed): 17.25 µM | severity of lesions in glandular stomach ([12]; 55.0 mg/kg, hypertrophy of mucus cells and flaking epithelium, p < 0.05 vs controls): minimal to mild | severity of lesions in liver ([12]; 55.0 mg/kg, inflammatory infiltrates and centrilobular degeneration of hepatocytes, p < 0.05 vs controls): minimal (1, minimal (<10%)) | severity of changes in liver ([12]; 17.4 and 5.5 mg/kg, similar to negative and solvent controls): minimal (1, minimal (<10%)) | severity of histopathological changes in stomach ([12]; 17.4 and 5.5 mg/kg, statistically significant): minimal (1, minimal (<10%)) | lesions in the nonglandular stomach ([12]; positive control (EMS 200 mg/kg) and PTS 55.0 mg/kg groups, with pyogranulomatous inflammatory infiltrate): vacuolation of the squamous epithelium in the mucosa

CCOS(C)(=O)=O [EMS, ethylmethanesulfonate, reference compound]
%MN [3, 22]: 2.53 ± 0.38 % | PCE/NCE [3, 22]: 0.53 ± 0.29 | PCE/Total [3, 22]: 0.33 ± 0.12 | %MN [3, 23]: 1.46 ± 0.72 % | PCE/NCE [3, 23]: 0.54 ± 0.12 | PCE/Total [3, 23]: 0.35 ± 0.05

CCCSS(=O)(=O)CCC [PTSO, propyl thiosulfinate oxide]
in vivo genotoxicity [13]: lack of PTSO genotoxicity | in vitro genotoxicity responses [14]: contradictory responses | histopathological damage in liver and stomach [15]: no relevant damage
